Patent publication US11033630B2, “Method and pharmaceutical composition for treatment of neurodegeneration” (priority 2016, dated 2021)
Where two headings read alike, the source gives them in different places.

What was measured:
[1] = tested on: MOG35-55-induced EAE in C57BL/6 mice; experiment: Experimental Autoimmune Encephalomyelitis (EAE), model for multiple sclerosis; assay type: in vivo
Procedure: In this study, the therapeutic effect of metal-DFO complex on multiple sclerosis (MS) is tested, using the Experimental Autoimmune Encephalomyelitis (EAE) in mice.
EAE is induced in 8-week-old female C57BL/6 mice by subcutaneous (SC) injection of 125 μg of myelin oligodendrocyte glycoprotein 35-55 peptide (MOG35-55) emulsified in complete Freund's adjuvant (CFA) containing 5 mg/ml heat-killed Mycobacterium tuberculosis into the left para-lumbar region. Immediately thereafter, and again at 48 h, the mice are inoculated intraperitoneal (IP) with 0.5 ml of pertussis toxin (400 ng). Seven days later, the mice are further challenged with an additional injection of MOG35-55 peptide in CFA injected into the right para-lumbar region. Mice are treated with Zn-DFO or Ga-DFO daily as IP injections, 2 mg/kg and 6 mg/kg.
The severity of the disease is assessed using the scale shown in Table 2 (Bittner et al., 2014).

[2] = tested on: MPTP model in C57BL/6 mice; experiment: MPTP mouse model of Parkinson's disease; assay type: in vivo; settings: 2 mg/kg daily IP
Procedure: In this study, the therapeutic effect of metal-DFO complex on Parkinson's disease is tested, using the 1-methyl-4-phenyl-1,2,3,6-tetrahydropyridine (MPTP) model in mice.
Parkinson's disease is induced in 10 weeks old male C57BL/6 mice by four continuous IP injections of 20 mg/kg of MPTP, every 2 hours and during 8 hours, for 5 days (Jackson-Lewis and Przedborski, 2007). The animals are treated with Zn-DFO or Ga-DFO by daily IP injections, 2 mg/kg and 6 mg/kg, 30 min prior to the first exposure to MPTP. On day 8 the animals are euthanized. Immediately after the euthanasia, the striata are dissected out to perform biochemical and histological assessment of the damage to dopaminergic innervation.

[3] = tested on: streptozotocin (STZ)-induced model in C57BL/6 mice; experiment: Streptozotocin-induced model of Alzheimer disease; assay type: in vivo; settings: IP, Zn-DFO/Ga-DFO 2 and 6 mg/kg daily, Eu-DFO 4 mg/kg
Procedure: In this study, the therapeutic effect of metal-DFO complex on Alzheimer disease is tested, using the streptozotocin (STZ)-induced model in mice.
The disease is induced in 10 weeks old male C57BL/6 mice. The animals are placed into a stereotaxic frame for mice with nose and ear bars. STZ (3 mg/kg) or citrate buffer (for the control group) is injected bilaterally into the lateral ventricles at the following coordinates: AP—0.5 mm; ML ±1.1 mm; DV—2.8 mm relative to the bregma in a total volume of 1.5 μl to hemisphere. The injections are repeated 2 days after the first STZ injection (1.5 mg/kg). In order to confirm that the stereotaxic coordinates used throughout the study are suitable for STZ injection into lateral ventricles, FITC-labeled latex microspheres are injected into lateral ventricles and the presence of fluorescence in the surrounding brain tissue is examined 24 h after injection. Mice are treated with Zn-DFO or Ga-DFO daily, by IP injections of 2 mg/kg and 6 mg/kg, and with Eu-DFO as IP injection, 4 mg/kg. During 21 days of the experiment the mice undergo maze tests and novel object recognition (NOR) tests every 7 days. Clinical signs including general body condition and dehydration are monitored daily after the surgery. Every 7 days a representative number of mice is taken from each group and euthanized for Alzheimer's disease markers (amyloid-β protein, neurofilament expression, phosphorylation of Tau protein, synapsin expression) biochemical and histochemical evaluation (Ravelli et al., 2016).

[4] = complex with Fe(III); cited from earlier work
[5] = complex with Cu(II); cited from earlier work
[6] = complex with Zn(II); cited from earlier work
[7] = complex with Ga(III); cited from earlier work
[8] = Behavior of rats monitored after IP injection; settings: monitored for 90 min
Procedure: (§1) In particular, male Sprague-Dawley (SD) rats (300 g average body weight, 3 animals per group) were injected IP with DFO (250, 500, or 1000 mg/kg body weight). For comparison, Zn-DFO solution in freshly prepared saline was injected IP (250, 500, or 1000 mg/kg body weight, which are equivalent to 883, 442, or 221 mg DFO/kg body weight, respectively).
(§2) The behavior of the rats was monitored for 90 min following the injection.

[9] = Blood-Brain Barrier (BBB) penetration: DFO concentration in rat brain after IP injection; settings: for DFO (mg/g organ) / DFO (mg/whole organ): rat brain, 90 min after IP injection
Procedure: (§3) In this study, the ability of the Zn-DFO complex to infiltrate into the brain was examined. Rats were injected intraperitoneally (IP) with increasing amounts of DFO alone or Zn-DFO complex, and the concentration of DFO was measured in their brains, thus monitoring their infiltrability.
as §1
(§4) The behavior of the rats was monitored for 90 min following the injection. Then, the animals were euthanized using an injection of ketamine-xylazine, and their hearts, livers, left kidneys, and brains were excised and weighted. Brain samples (300 mg tissue) were homogenized in 3 ml Lysis buffer. Tissue homogenates were incubated at 110° C. for 5 min and centrifuged for 5 min at 14,500 relative centrifugal force (RCF). An equal volume of 40% trichloroacetic acid (TCA) solution was added, forming a solution containing 20% TCA, which was vortexed and centrifuged again. The supernatants were transferred into cuvettes, and DFO concentration was spectrophotometrically measured, after addition of 10 mM of ferric iron solution (as a weak complex of iron, ferric-nitrilo-tri-acetate, at pH=7.4), and scanning the range of λ=380-580 nm. The final concentration was calculated according to the Beer-Lambert law, using εDFO=2460 M^−1cm^−1; the total amount of DFO per gram tissue and per whole brain were calculated.

[10] = tested on: contusion spinal cord injury model in C57BL/6 mice; experiment: Contusion spinal cord injury model; assay type: in vivo; settings: 3 mg/kg IP
Procedure: In this study, the therapeutic effect of metal-DFO complex on spinal cord injury was tested, using a contusion spinal cord injury model in C57BL/6 mice.
A contusion spinal cord injury model was employed using Infinite Horizon spinal cord impactor. The injury was performed at force setting of 70 kilodyne, for 100 ms (milisecond) on exposed T12 vertebra of the mouse (8 weeks old male), anesthetized with a ketamine-xylazine mixture (85:15), and immobilized. Immediately before the impact, the mice were injected with buprenorphine (0.1 mg/ml/kg body weight) as an analgesic.
Twenty one mice, after contusion, were divided into three groups (n=7), according to their treatment as following (Basso et al., 2006): Group 1—control untreated; Group 2—treated with saline (IP injections of 100 μl on Days 1, 2, 3, 4, 6, 8, 10, 12, 14, 17, 20, 23, 27, 31, 35, 39, and 42); Group 3—treated with Zn-DFO complex, 3 mg/kg body weight in saline (IP injections of 100 μl according to the same regimen as Group 2). Both treated groups (saline and Zn-DFO complex) received the first treatment 10 min following the Impactor-induced trauma.
The post-traumatic recovery of mice locomotion with or without treatment was assessed on a daily basis for the next 43 days, using open field Basso mouse scale (BMS) score as following: 0—no ankle movement; 1—slight ankle movement; 2—extensive ankle movement; 3—plantar placing of the paw with or without weight support, or occasional, frequent or consistent dorsal stepping but no plantar stepping; 4—occasional plantar stepping; 5—frequent or consistent plantar stepping, no coordination, or frequent or consistent plantar stepping, some coordination, paws rotated at initial contact and lift off (R/R); 6—frequent or consistent plantar stepping, some coordination, paws parallel at initial contact (P/R, P/P), or frequent or consistent plantar stepping, mostly coordinated, paws rotated at initial contact and lift off (R/R); 7—frequent or consistent plantar stepping, mostly coordinated, paws parallel at initial contact and rotated at lift off (P/R), or frequent or consistent plantar stepping, mostly coordinated, paws parallel at initial contact and lift off (P/P), and severe trunk instability; 8—frequent or consistent plantar stepping, mostly coordinated, paws parallel at initial contact and lift off (P/P), and mild trunk instability, or frequent or consistent plantar stepping, mostly coordinated, paws parallel at initial contact and lift off (P/P), and normal trunk stability and tail down or up & down; and 9—frequent or consistent plantar stepping, mostly coordinated, paws parallel at initial contact and lift off (P/P), and normal trunk stability and tail always up (P—parallel; R—rotated). The values were normalized considering the basal score on Day 0 as 100%.
On Day 43, the animals were euthanized, and their spinal cords were excised and stored in paraformaldehyde (PFA) 4% for histological analysis. Epon blocks were prepared, and the histological analysis was performed after staining with methylene blue.

[11] = tested on: H9C2 cardiomyocytes; experiment: Penetration of cellular membranes in tissue culture model; assay type: in vitro ADME; settings: data not shown
Excerpt: It is postulated that some of the useful effects exerted by DFO in inhibiting ROS formation are achieved through its actions as a chelating agent (chelant, chelator, or sequestering agent), capable of forming soluble complexes, i.e., chelates, with certain metal ions and consequently inactivating said metal ions such that they cannot normally react with other elements or ions. Such chelates often have chemical and biological properties that are markedly different from those of either the chelator or metal ion, alone. For example, whereas DFO is a molecule having a noodle-like structure that can sparingly infiltrate into cells, metal-chelates formed by said molecule, e.g., the zinc-, gallium- or iron-chelates, assume a globular structure capable of infiltrating into cells.

[12] = rat, in vivo, ip
Procedure: as §3, §1, §4

[13] = rat, in vivo, ip; remark: listed apart in the source
Procedure: as §1, §2

CC(=O)N([O-])CCCCCNC(=O)CCC(=O)N([O-])CCCCCNC(=O)CCC(=O)N([O-])CCCCCN.[Ga+3] [Ga-DFO, gallium-desferrioxamine B]
onset of the disease ([1]; 2 mg/kg daily IP): 14 days | onset of the disease ([1]; 6 mg/kg daily IP): 15 days | number of TH-positive neurons within the substantia nigra (% of control) [2]: 65% | diminishing expression of synapsin [3]: attenuate this process dose-dependently | expression of Aβ protein and phosphorylation of Tau protein in the hippocampus [3]: inhibited | impairment of maze and NOR test outcomes [3]: (largely) prevent this impairment in a dose-dependent manner

CC(=O)N(O)CCCCCNC(=O)CCC(=O)N(O)CCCCCNC(=O)CCC(=O)N(O)CCCCCN [DFO, N′-[5-(Acetyl-hydroxy-amino)pentyl]-N-[5-[3-(5-aminopentyl-hydroxy-carbamoyl)propanoylamino]pentyl]-N-hydroxy-butane diamide]
relative stability constant of DFO complex [4]: 10^31 | relative stability constant of DFO complex [5]: 10^14 | relative stability constant of DFO complex [6]: 10^11 | relative stability constant of DFO complex [7]: 10^28 | changes in rats' behavior ([8]; IP 250 mg/kg): no changes in rats' behavior was observed | changes in rats' behavior ([8]; IP 500 mg/kg): no changes in rats' behavior was observed | changes in rats' behavior ([8]; IP 1000 mg/kg): no changes in rats' behavior was observed | DFO (mg/g organ) ([9]; 250 mg/kg): <0.005 mg/g organ | DFO (mg/whole organ) ([9]; 250 mg/kg): <0.005 mg/whole organ | DFO (mg/g organ) ([9]; 500 mg/kg): <0.005 mg/g organ | DFO (mg/whole organ) ([9]; 500 mg/kg): <0.005 mg/whole organ | DFO (mg/g organ) ([9]; 1000 mg/kg): 0.008 ± 0.004 mg/g organ | DFO (mg/whole organ) ([9]; 1000 mg/kg): 0.019 ± 0.008 mg/whole organ | DFO infiltrated the brain (%) ([9]; rat, IP, 250 mg/kg): <0.0015% | DFO infiltrated the brain (%) ([9]; rat, IP, 500 mg/kg): <0.0015% | DFO infiltrated the brain (%) ([9]; rat, IP, 1000 mg/kg): 0.002% | fraction of DFO that had infiltrated into the brain ([9]; rat, IP, over the 3 doses (250, 500 and 1000 mg/kg)): ≤ 0.002%

Zinc-desferrioxamine B [Zn-DFO]
BMS score ([10]; Day 13): 5.1 | normalized BMS score (% of initial scoring, Day 0) ([10]; Day 13): 347% | normalized BMS score (% of initial scoring), plateau ([10]; Day 29): 389% | BMS score, plateau ([10]; Day 29, scale 0-9): 5.7 | density of axons and axonal myelin sheath in white matter ([10]; spinal cord histology, Day 43): restoring the density of axons and axonal myelin sheath | white matter area (fraction of the total area) ([10]; spinal cord histology, Day 43): 50.8±3.3% | body weight gain ([10]; vs non-treated or saline-treated animals): gained weight better than the non-treated or saline-treated animals | ability to infiltrate into the cells relative to DFO alone [11]: more than threefold higher | onset of the disease ([1]; 2 mg/kg daily IP): 14 days | onset of the disease ([1]; 6 mg/kg daily IP): 15 to 16 days | peak clinical score ([1]; 6 mg/kg daily IP, Day 19, Table 2 scale): less than 3 | number of TH-positive neurons within the substantia nigra (% of control) [2]: 65% | diminishing expression of synapsin [3]: attenuate this process dose-dependently | expression of Aβ protein and phosphorylation of Tau protein in the hippocampus [3]: inhibited | impairment of maze and NOR test outcomes [3]: (largely) prevent this impairment in a dose-dependent manner | infiltrability into the brain relative to DFO alone [12]: at least 8.6 fold | DFO (mg/g organ) ([12]; 250 mg/kg): 0.017 ± 0.002 mg/g organ | DFO (mg/whole organ) ([12]; 250 mg/kg): 0.032 ± 0.004 mg/whole organ | DFO infiltrated the brain (%) ([12]; 250 mg/kg): 0.014% | DFO (mg/g organ) ([12]; 500 mg/kg): 0.031 ± 0.001 mg/g organ | DFO (mg/whole organ) ([12]; 500 mg/kg): 0.054 ± 0.002 mg/whole organ | DFO infiltrated the brain (%) ([12]; 500 mg/kg): 0.012% | DFO (mg/g organ) ([12]; 1000 mg/kg): 0.072 ± 0.011 mg/g organ | DFO (mg/whole organ) ([12]; 1000 mg/kg): 0.133 ± 0.010 mg/whole organ | DFO infiltrated the brain (%) ([12]; 1000 mg/kg): 0.014% | changes in rats' behavior ([13]; 250 mg/kg): no changes in the rats' behavior could be identified | changes in rats' behavior ([13]; 500 mg/kg): no changes in the rats' behavior could be identified | changes in rats' behavior ([13]; 1000 mg/kg): passive and apathetic

CC(=O)N(O)CCCCCNC(=O)CCC(=O)N(O)CCCCCNC(=O)CCC(=O)N(O)CCCCCN.[Eu+3] [Eu-DFO]
diminishing expression of synapsin [3]: Only a minute effect | expression of Aβ protein and phosphorylation of Tau protein in the hippocampus [3]: slightly better than Ga-DFO
